Converted amounts (≈) assume the structure as drawn. Like-named read-outs stand apart in the source and are kept apart here. Blank lines part the entries; values can stand above or below the compound they belong to.
What was measured:
E. coli ΔacrAB = assay: MIC, efflux pump mutant; assay type: cell-based, Escherichia coli
Protocol: (§1) Minimal inhibitory concentrations (MICs) were performed using a broth microdilution technique according to the Clinical and Laboratory Standards Institute (CLSI) guidelines. MICs were determined in MHBCA and in ID-MHBCA. To check the impact of β-lactamases, MICs in the presence of a β-lactamase inhibitor were also determined. The inhibitor was homogenized at 2X the final concentration and added to the bacterial inoculum just before distributing cells into the wells containing the drug dilutions. The final concentration of each inhibitor was 4 μg/mL for clavulanic acid (tested against K. pneumoniae) and 200 μg/mL for 3-aminophenylboronic acid (tested against P. aeruginosa and A. baumannii).

P. aeruginosa ATCC 27853 = assay: MIC, broth microdilution (CLSI); assay type: cell-based, Pseudomonas aeruginosa; details: MHBCA; for MIC in combination with PAβN (control antibiotics): + 25 µg/mL PAβN
Protocol: (§2) All bacterial strains (see description and sources Table S1) were stored at −80 °C, and grown on tryptone soya agar (TSA) at 35 °C. The iron-deprived (ID)-MHBCA (cation-adjusted Muller-Hinton Broth, Becton Dickinson, Mississauga, ON, Canada) medium was prepared as reported by refs. [21],[50]. Briefly, MHBCA was treated with 10% Chelex® 50-100 mesh (Sigma) and stirred for 6 h at room temperature. The resin was removed by filtration. Divalent Ca^2+ (CaCl2), Mg^2+ (MgCl2), and Zn^2+(ZnSO4), were then added in the iron-depleted medium at 22, 12, and 1 μg/ml respectively. Finally, the pH was adjusted to 7.3, and the medium was sterilized with a 0.2-μm filter. Regular MHBCA (i.e., not treated with Chelex®) was used to compare the inhibitory activity of conjugates in iron-sufficient conditions.
as §1

E. coli MC4100 = assay: MIC; assay type: cell-based, Escherichia coli; details: MC4100, MHBCA
Protocol: as §2, §1

[1] = test system: P. aeruginosa 1625 ΔmexAB-oprM, ΔmexEF-oprN; assay: MIC, efflux pump mutant; assay type: cell-based, Pseudomonas aeruginosa; details: Pseudomonas aeruginosa
Protocol: as §1

[2] = test system: P. aeruginosa 2302 MexAB, MexCD, MexEF upregulated; assay: MIC, efflux pump overexpressing strain; assay type: cell-based, Pseudomonas aeruginosa; details: Pseudomonas aeruginosa
Protocol: as §1

AmpC (PDC-5) = AmpC (PDC-5) (Pseudomonas aeruginosa, UniProt P24735, R79Q/T105A); assay: biochemical; assay type: biochemical, P. aeruginosa ATCC 27853; details: n = 2
AmpC (PDC-5), sequence (P24735 27-397 R79Q/T105A): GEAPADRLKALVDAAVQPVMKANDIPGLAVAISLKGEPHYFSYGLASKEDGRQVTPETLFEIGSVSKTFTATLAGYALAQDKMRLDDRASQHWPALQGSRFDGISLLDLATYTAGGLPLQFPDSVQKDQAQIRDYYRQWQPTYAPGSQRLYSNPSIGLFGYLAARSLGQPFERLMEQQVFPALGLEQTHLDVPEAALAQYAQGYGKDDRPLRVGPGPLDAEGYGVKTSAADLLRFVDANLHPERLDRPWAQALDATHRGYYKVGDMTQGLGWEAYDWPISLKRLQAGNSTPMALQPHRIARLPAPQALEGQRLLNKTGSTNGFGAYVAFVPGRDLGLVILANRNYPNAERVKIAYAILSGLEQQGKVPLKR
Protocol: The purification of AmpC from the culture supernatant obtained above was conducted as described in the Catwright and Waley protocol[52] using an Affi-gel 10 matrix (Bio-Rad, Hercules, CA, USA) loaded in a column (G-Bioscience, St-Louis, MO, USA). First, the resin was washed with cold deionized water. The resin was then collected and mixed with 20 mL of the 3-aminophenylboronic acid solution (1 M KHCO3 containing 2 g of 3-aminophenyl boronic acid and 2 g of sorbitol) at 4 °C for 1 h, and the pH was maintained at 8 with solid KHCO3. The mixture was loaded onto the column and washed with 10 column volumes of 1 M NaCl/0.5 M sorbitol (pH 7), followed by 10 column volumes of 0.5 M borate (pH 7), and then 10 column volumes of the loading buffer (20 mM triethanolamine HCl/0.5 M NaCl, pH 7). The sample was dialyzed in the loading buffer before being loaded onto the column. The column was washed with the loading buffer until no absorbance was measured at OD280. AmpC was eluted in fractions of 1 mL with 0.5 M borate/0.5 M NaCl pH 7. […] The purity was visualized on a 10% bis-acrylamide gel. Only pure fractions showing a single band at 40 kDa were pooled together and then dialyzed at 4 °C in a KP buffer 0.05 M pH 7 (see Fig. S2). The protein concentration was determined with a Bradford protein reagent (Bio-Rad).
(§3) Enzyme concentrations were 20 nM for AmpC and SHV-1, and 50 nM for OXA-98. Quartz cuvette (FireflySci Inc., Northport, NY) with 1 cm length path and 2 mm inside width was used with an Ultrospec 2100 Pro (Biochrom, Harvard Bioscience Inc., USA) to acquire the kinetic measures. […] The following extinction coefficients (Δε) and wavelengths (λ) were used:
(§4) The steady-state parameters (Km and Kcat) were determined by plotting the initial velocity against substrate concentrations (Michaelis–Menten curve). The Kcat was measured using the Vmax (μM/sec) divided by the total enzyme concentration and the catalytic efficiency was further calculated (Kcat/Km). SHV-1 parameters were determined with three Michaelis–Menten curves of at least seven substrate concentrations, while OXA-98 and AmpC were duplicates of curves of at least seven substrate concentrations. […] Initial velocities were measured at room temperature (25 °C). The Vmax and Km were calculated using least squares fit regression in GraphPad version 10.2.2. Ki was measured using a derivative of IC50 with an adaptation of the Cheng–Prusoff equation[55]. […] The corrected Ki was calculated using this formula: Kicorrected=Ki(observed)/1+S/KmNCF

A. baumannii ATCC 19606 = assay: MIC, broth microdilution (CLSI); assay type: cell-based, Acinetobacter baumannii; details: MHBCA
Protocol: as §2, with “conditions. The resin used for Chelex treatment was always fresh and had never been regenerated, ensuring consistent iron removal.” for “conditions.”
as §1

E. coli lptD4213 = assay: MIC, hyperpermeable mutant; assay type: cell-based, Escherichia coli; details: lptD4213, MHBCA (+)
Protocol: as §2, with “conditions. The resin used for Chelex treatment was always fresh and had never been regenerated, ensuring consistent iron removal.” for “conditions.”
as §1

E. coli PBP3 = test system: E. coli PBP3; design: method as in PMID 29061741; details: cited from earlier work
[3] = test system: O=C(Cc1cccs1)N[C@@H]1C(=O)N2C(C(=O)O)=C(/C=C/c3ccc([N+](=O)[O-])cc3[N+](=O)[O-])CS[C@H]12; assay: purified protein, by the assay type; assay type: biochemical, A. baumannii ATCC 19606; details: other: 20 mM NaHCO3 added, NH = no hydrolysis detected, pH 7.0
Protocol: as §3, §4

[4] = test system: CC1(C)S[C@@H]2[C@H](NC(=O)[C@H](N)c3ccccc3)C(=O)N2[C@H]1C(=O)O; assay: purified protein, by the assay type; assay type: biochemical, A. baumannii ATCC 19606; details: other: 20 mM NaHCO3 added, NH = no hydrolysis detected, pH 7.0
Protocol: as §3, §4

[5] = test system: O=C(Cc1cccs1)N[C@@H]1C(=O)N2C(C(=O)O)=C(/C=C/c3ccc([N+](=O)[O-])cc3[N+](=O)[O-])CS[C@H]12; assay: purified protein, by the assay type; details: other: Michaelis–Menten curves, n = 3, 25 °C, pH 7.0
[6] = test system: CC1(C)S[C@@H]2[C@H](NC(=O)[C@H](N)c3ccccc3)C(=O)N2[C@H]1C(=O)O; assay: purified protein, by the assay type; details: other: Michaelis–Menten curves, n = 3, 25 °C, pH 7.0

Compound: CC[C@H]1OC(=O)[C@H](C)[C@@H](O[C@H]2C[C@@](C)(OC)[C@@H](O)[C@H](C)O2)[C@H](C)[C@@H](O[C@@H]2O[C@H](C)C[C@H](N(C)C)[C@H]2O)[C@](C)(O)C[C@@H](C)C(=O)[C@H](C)[C@@H](O)[C@]1(C)O [ERY, erythromycin]
MIC (E. coli ΔacrAB; Escherichia coli): 4 µM (≈ 2.94 µg/mL) | MIC (control antibiotic) (E. coli ΔacrAB; deletion of acrAB): 4 µg/mL (≈ 5.45 µM) | reduction of MIC by deletion of acrAB (E. coli ΔacrAB; versus parent E. coli): 32 fold | MIC in combination with PAβN (control antibiotics) (P. aeruginosa ATCC 27853): 32 µg/mL | MIC in combination with PAβN (control antibiotics) (E. coli MC4100; + 25 µg/mL PAβN): 16 µg/mL

Compound: C[C@H]1COc2c(N3CCN(C)CC3)c(F)cc3c(=O)c(C(=O)O)cn1c23 [LVX, levofloxacin]
MIC [1]: ≤ 0.06 µM | MIC ([1]; read-out: MIC (control drug)): ≤ 0.06 µg/mL | MIC [2]: 16 µM | MIC ([2]; read-out: MIC (control drug)): 16 µg/mL

Compound: O=C(Cc1cccs1)N[C@@H]1C(=O)N2C(C(=O)O)=C(/C=C/c3ccc([N+](=O)[O-])cc3[N+](=O)[O-])CS[C@H]12 [NCF, nitrocefin]
AmpC (PDC-5) Vmax (AmpC (PDC-5)): 121 ± 3 µmol·mg/min | Km (AmpC (PDC-5); read-out: AmpC (PDC-5) Km, Michaelis–Menten curves): 103 ± 4 µM

MIC in combination with PAβN (control antibiotics) (A. baumannii ATCC 19606; + 25 µg/mL PAβN): ≤ 0.012 µg/mL | MIC (control antibiotics) (A. baumannii ATCC 19606; without PAβN): 16 µg/mL (≈ 19.4 µM) | MIC in combination with PAβN (control antibiotics) (P. aeruginosa ATCC 27853): 2 µg/mL | MIC (control antibiotics) (P. aeruginosa ATCC 27853; without PAβN): 16 µg/mL (≈ 19.4 µM)
Compound: CO[C@H]1/C=C/O[C@@]2(C)Oc3c(C)c(O)c4c(O)c(c(/C=N/N5CCN(C)CC5)c(O)c4c3C2=O)NC(=O)/C(C)=C\C=C\[C@H](C)[C@H](O)[C@@H](C)[C@@H](O)[C@@H](C)[C@H](OC(C)=O)[C@@H]1C [RIF, rifampicin, reference compound]

Compound: CN[C@H](CC(C)C)C(=O)N[C@H]1C(=O)N[C@@H](CC(N)=O)C(=O)N[C@H]2C(=O)N[C@H]3C(=O)N[C@H](C(=O)N[C@H](C(=O)O)c4cc(O)cc(O)c4-c4cc3ccc4O)[C@H](O)c3ccc(c(Cl)c3)Oc3cc2cc(c3O[C@@H]2O[C@H](CO)[C@@H](O)[C@H](O)[C@H]2O[C@H]2C[C@](C)(N)[C@H](O)[C@H](C)O2)Oc2ccc(cc2Cl)[C@H]1O [VAN, vancomycin, reference compound]
MIC (control antibiotic) (E. coli lptD4213): 0.5 µg/mL (≈ 0.345 µM) | MIC (control antibiotics) (E. coli MC4100; without PAβN): > 128 µg/mL

Compound: CC(C)(O/N=C(\C(=O)N[C@@H]1C(=O)N2C(C(=O)[O-])=C(C[N+]3(CCNC(=O)c4ccc(O)c(O)c4Cl)CCCC3)CS[C@H]12)c1csc(N)n1)C(=O)O [cefiderocol]
decrease in the IC50 for E. coli PBP3 compared to ceftazidime (E. coli PBP3): 11 fold

Compound: OXA-98 (Acinetobacter baumannii ATCC 19606 = CIP 70.34 = JCM 6841)
Km [3]: 343 ± 10 µM | kcat [3]: 3.5 ± 0.2 s⁻¹ | kcat/Km [3]: 10000 ± 0 M⁻¹ s⁻¹ | Km [4]: 490 ± 12 µM | kcat [4]: 22 ± 1 s⁻¹ | kcat/Km [4]: 40000 ± 0 M⁻¹ s⁻¹

Compound: SHV-1 (Klebsiella pneumoniae)
Km [5]: 25 ± 3 µM | kcat [5]: 247 ± 48 s⁻¹ | kcat/Km [5]: 9.8e+06 ± 2.3e+06 M⁻¹ s⁻¹ | Km [6]: 164 ± 4 µM | kcat [6]: 1565 ± 42 s⁻¹ | kcat/Km [6]: 9.5e+06 ± 300000 M⁻¹ s⁻¹

Reference: paper PMC12592502, “Unraveling the mechanisms behind the enhanced efficacy of β-lactam-based sideromycins” (Communications Biology, 2025)
